Legend:
rice blast = experiment: microbe, parasite or virus in culture; assay type: cell-based; conditions: Pyricularia oryzae; for inhibition at 8.3 ppm: read-out: inhibition rate against rice blast, 8.3 ppm, in vitro; for inhibition at 25 ppm: read-out: inhibition rate against rice blast, 25 ppm, in vitro
cucumber gray mold = experiment: fungicidal activity in vitro (inhibition rate) against cucumber gray mold; assay type: cell-based; conditions: 25 ppm, in vitro; read-out: inhibition rate against cucumber gray mold
Diamond back moth = experiment: insecticidal activity against diamond back moth, airbrush spray; assay type: in vivo; conditions: 72 h; for pest or weed control at 100 ppm / pest or weed control at 600 ppm: mortality after 72 hrs, read-out: control (test results against diamond back moth)
Procedure, shortened: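 Airbrush leaf-disc spray test: both faces of 2 cm cabbage discs received 0.5 ml of test solution at 0.7 kg/cm^2. Solutions were made in acetone:methanol (1:1) and brought to concentration with 0.1% Tween 80 in water. Ten second-instar larvae per disc, triplicates, were held at 25° C and 60˜70% R.H., with mortality recorded at 72 hrs.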

armyworm = experiment: bioactivity test against armyworm, airbrush spray; assay type: in vivo; conditions: 72 h; for pest or weed control at 600 µg/mL: 600 mg/L
[1] = tested on: Green peach aphids (Myzus Persicae Sulzer); experiment: bioactivity test against green peach aphid, airbrush foliar spray; assay type: in vivo; conditions: Myzus persicae, foliar, 48 h; for pest or weed control at 5 µg/mL: 5 mg/L; for pest or weed control at 10 µg/mL: 10 mg/L; for pest or weed control at 100 µg/mL: 100 mg/L; for pest or weed control at 600 µg/mL: 600 mg/L; for pest or weed control at 10 ppm / pest or weed control at 100 ppm / pest or weed control at 600 ppm: death rate after 48 hrs
Procedure, shortened: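 Aphids (15-30 per cabbage leaf disc) on moist filter paper were airbrush-sprayed at 10 psi, 0.5 mL, with compound from acetone:methanol (1:1) diluted in water with 0.1% tween 80. Held at 25±1 C, 60±5% RH; survivors counted after 48 hrs to give death rates.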

carmine spider mite = experiment: bioactivity test against carmine spider mite, airbrush spray; assay type: in vivo; conditions: Tetranychus cinnabarinus, 72 h; for pest or weed control at 100 µg/mL: 100 mg/L; for pest or weed control at 600 µg/mL: 600 mg/L; for pest or weed control at 100 ppm / pest or weed control at 600 ppm: mortality after 72 hrs
Procedure, shortened: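 Broadbean seedlings infested with adult mites were sprayed with compound (acetone/methanol stock diluted in 0.1% Tween 80 water) by airbrush at 0.7 kg/cm^2, 0.5 ml. Three replicates were run. Mortality was scored after 72 hrs.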

corn rust = experiment: protectant activity in vivo against corn rust; conditions: Zea mays, 168 h; for pest or weed control at 25 µg/mL: read-out: control effect against corn rust (%), 25 mg/L; for pest or weed control at 100 µg/mL: read-out: control effect against corn rust (%), 100 mg/L; for pest or weed control at 400 µg/mL: read-out: control effect against corn rust (%), 400 mg/L; for pest or weed control at 100 ppm: read-out: protectant activity against corn rust in vivo, 100 ppm; for pest or weed control at 400 ppm: read-out: protectant activity against corn rust in vivo, 400 ppm
wheat powdery mildew = experiment: protectant activity in vivo against wheat powdery mildew; conditions: Triticum aestivum, 168 h; for pest or weed control at 100 ppm: read-out: protectant activity against wheat powdery mildew in vivo, 100 ppm; for pest or weed control at 400 ppm: read-out: protectant activity against wheat powdery mildew in vivo, 400 ppm; for pest or weed control at 6.25 µg/mL: read-out: control effect against wheat powdery mildew (%), 6.25 mg/L; for pest or weed control at 6.25 µg/mL / pest or weed control at 25 µg/mL / pest or weed control at 100 µg/mL / pest or weed control at 400 µg/mL: protectant activity; for pest or weed control at 25 µg/mL: read-out: control effect against wheat powdery mildew (%), 25 mg/L; for pest or weed control at 100 µg/mL: read-out: control effect against wheat powdery mildew (%), 100 mg/L; for pest or weed control at 400 µg/mL: read-out: control effect against wheat powdery mildew (%), 400 mg/L
cucumber downy mildew = experiment: protectant activity in vivo against cucumber downy mildew; conditions: Cucumis sativus, 168 h; for pest or weed control at 6.25 µg/mL: read-out: control effect against cucumber downy mildew (%), 6.25 mg/L; for pest or weed control at 12.5 µg/mL: read-out: control effect against cucumber downy mildew (%), 12.5 mg/L; for pest or weed control at 25 µg/mL: read-out: control effect against cucumber downy mildew (%), 25 mg/L; for pest or weed control at 50 µg/mL: read-out: control effect against cucumber downy mildew (%), 50 mg/L; for pest or weed control at 100 µg/mL: read-out: control effect against cucumber downy mildew (%), 100 mg/L; for pest or weed control at 400 µg/mL: read-out: control effect against cucumber downy mildew (%), 400 mg/L; for pest or weed control at 6.25 ppm: read-out: protectant activity against cucumber downy mildew in vivo, 6.25 ppm; for pest or weed control at 12.5 ppm: read-out: protectant activity against cucumber downy mildew in vivo, 12.5 ppm; for pest or weed control at 25 ppm: read-out: protectant activity against cucumber downy mildew in vivo, 25 ppm; for pest or weed control at 50 ppm: read-out: protectant activity against cucumber downy mildew in vivo, 50 ppm; for pest or weed control at 100 ppm: read-out: protectant activity against cucumber downy mildew in vivo, 100 ppm
[2] = contrastive test, read-out: Insecticidal activity against peach aphid (%)
[3] = contrastive test, read-out: Insecticidal activity against carmine spider mite (% )
[4] = read-out: Insecticidal activity against armyworm (%)

Compound: Cc1ncnc(NCCc2ccc(Oc3ccc(Cl)cc3)nc2)c1Cl [III-7]
- inhibition at 0.1 ppm (rice blast; read-out: inhibition rate against rice blast, 0.1 ppm, in vitro): 100%
- inhibition at 0.3 ppm (rice blast; read-out: inhibition rate against rice blast, 0.3 ppm, in vitro): 100%
- inhibition at 0.9 ppm (rice blast; read-out: inhibition rate against rice blast, 0.9 ppm, in vitro): 100%
- inhibition at 2.8 ppm (rice blast; read-out: inhibition rate against rice blast, 2.8 ppm, in vitro): 100%
- inhibition at 8.3 ppm (rice blast): 100%
- inhibition at 25 ppm (rice blast): 100%
- inhibition at 25 ppm (cucumber gray mold): 80 to 99%
- pest or weed control at 100 ppm (Diamond back moth): 80 to 99%
- pest or weed control at 600 ppm (Diamond back moth): 100%
- pest or weed control at 600 ppm (armyworm; mortality after 72 h): 100%
- pest or weed control at 5 µg/mL [1, 2]: 88%
- pest or weed control at 10 µg/mL [1, 2]: 90%
- pest or weed control at 100 µg/mL [1, 2]: 100%
- pest or weed control at 600 µg/mL [1, 2]: 100%
- pest or weed control at 10 ppm [1]: 80 to 99%
- pest or weed control at 100 ppm [1]: 100%
- pest or weed control at 600 ppm [1]: 100%
- pest or weed control at 100 µg/mL (carmine spider mite; [3]): 100%
- pest or weed control at 600 µg/mL (carmine spider mite; [3]): 100%
- pest or weed control at 100 ppm (carmine spider mite): 100%
- pest or weed control at 600 ppm (carmine spider mite): 100%
- pest or weed control at 25 µg/mL (corn rust; protectant activity): 100%
- pest or weed control at 100 µg/mL (corn rust; protectant activity): 100%
- pest or weed control at 400 µg/mL (corn rust; protectant activity): 100%
- pest or weed control at 25 ppm (corn rust; read-out: protectant activity against corn rust in vivo, 25 ppm): 100%
- pest or weed control at 100 ppm (corn rust): 100%
- pest or weed control at 400 ppm (corn rust): 100%
- pest or weed control at 100 ppm (wheat powdery mildew): 80 to 99%
- pest or weed control at 400 ppm (wheat powdery mildew): 100%
- pest or weed control at 3.125 µg/mL (cucumber downy mildew; read-out: control effect against cucumber downy mildew (%), 3.125 mg/L, protectant activity): 100%
- pest or weed control at 6.25 µg/mL (cucumber downy mildew; protectant activity): 100%
- pest or weed control at 12.5 µg/mL (cucumber downy mildew; protectant activity): 100%
- pest or weed control at 25 µg/mL (cucumber downy mildew; protectant activity): 100%
- pest or weed control at 50 µg/mL (cucumber downy mildew; protectant activity): 100%
- pest or weed control at 100 µg/mL (cucumber downy mildew; protectant activity): 100%
- pest or weed control at 400 µg/mL (cucumber downy mildew; protectant activity): 100%
- pest or weed control at 6.25 ppm (cucumber downy mildew): 100%
- pest or weed control at 12.5 ppm (cucumber downy mildew): 100%
- pest or weed control at 25 ppm (cucumber downy mildew): 100%
- pest or weed control at 50 ppm (cucumber downy mildew): 100%
- pest or weed control at 100 ppm (cucumber downy mildew): 100%
- pest or weed control at 400 ppm (cucumber downy mildew; read-out: protectant activity against cucumber downy mildew in vivo, 400 ppm): 100%

Compound: CCc1ncnc(NCCc2ccc(Oc3ccc(C(F)(F)F)cc3)nc2)c1Cl [III-202]
- inhibition at 25 ppm (rice blast): 80 to 99%
- inhibition at 25 ppm (cucumber gray mold): 80 to 99%
- pest or weed control at 100 ppm (Diamond back moth): 80 to 99%
- pest or weed control at 600 ppm (Diamond back moth): 100%
- pest or weed control at 10 µg/mL (armyworm; 10 mg/L, read-out: Insecticidal activity against armyworm (%)): 65%
- pest or weed control at 100 µg/mL (armyworm; 100 mg/L, read-out: Insecticidal activity against armyworm (%)): 100%
- pest or weed control at 600 µg/mL (armyworm; [4]): 100%
- pest or weed control at 100 ppm (armyworm; 100 ppm, mortality after 72 h): 100%
- pest or weed control at 600 ppm (armyworm; mortality after 72 h): 100%
- pest or weed control at 1.25 µg/mL ([1]; 1.25 mg/L, contrastive test, read-out: Insecticidal activity against peach aphid (%)): 94%
- pest or weed control at 2.5 µg/mL ([1]; 2.5 mg/L, contrastive test, read-out: Insecticidal activity against peach aphid (%)): 100%
- pest or weed control at 5 µg/mL [1, 2]: 100%
- pest or weed control at 10 µg/mL [1, 2]: 100%
- pest or weed control at 100 µg/mL [1, 2]: 100%
- pest or weed control at 600 µg/mL [1, 2]: 100%
- pest or weed control at 10 ppm [1]: 100%
- pest or weed control at 100 ppm [1]: 100%
- pest or weed control at 600 ppm [1]: 100%
- pest or weed control at 100 ppm (carmine spider mite): 100%
- pest or weed control at 600 ppm (carmine spider mite): 100%
- pest or weed control at 100 ppm (corn rust): 100%
- pest or weed control at 400 ppm (corn rust): 100%
- pest or weed control at 6.25 µg/mL (wheat powdery mildew): 95%
- pest or weed control at 25 µg/mL (wheat powdery mildew): 100%
- pest or weed control at 100 µg/mL (wheat powdery mildew): 100%
- pest or weed control at 400 µg/mL (wheat powdery mildew): 100%
- pest or weed control at 6.25 ppm (wheat powdery mildew; read-out: protectant activity against wheat powdery mildew in vivo, 6.25 ppm): 80 to 99%
- pest or weed control at 25 ppm (wheat powdery mildew; read-out: protectant activity against wheat powdery mildew in vivo, 25 ppm): 100%
- pest or weed control at 100 ppm (wheat powdery mildew): 100%
- pest or weed control at 400 ppm (wheat powdery mildew): 100%
- pest or weed control at 6.25 µg/mL (cucumber downy mildew; protectant activity): 100%
- pest or weed control at 12.5 µg/mL (cucumber downy mildew; protectant activity): 100%
- pest or weed control at 25 µg/mL (cucumber downy mildew; protectant activity): 100%
- pest or weed control at 50 µg/mL (cucumber downy mildew; protectant activity): 100%
- pest or weed control at 100 µg/mL (cucumber downy mildew; protectant activity): 100%
- pest or weed control at 400 µg/mL (cucumber downy mildew; protectant activity): 100%
- pest or weed control at 6.25 ppm (cucumber downy mildew): 100%
- pest or weed control at 12.5 ppm (cucumber downy mildew): 100%
- pest or weed control at 25 ppm (cucumber downy mildew): 100%
- pest or weed control at 50 ppm (cucumber downy mildew): 100%
- pest or weed control at 100 ppm (cucumber downy mildew): 100%

Compound: CCC(Nc1ncnc(C)c1Cl)c1ccc(OC(F)F)cc1 (centres unmarked) [diflumetorim, reference compound]
- inhibition at 8.3 ppm (rice blast): 0%
- inhibition at 25 ppm (cucumber gray mold): 0%
- pest or weed control at 600 µg/mL (Diamond back moth; 600 mg/L): 0%
- pest or weed control at 600 µg/mL (armyworm; [4]): 0%
- pest or weed control at 10 µg/mL [1, 2]: 0%
- pest or weed control at 100 µg/mL [1, 2]: 35%
- pest or weed control at 600 µg/mL [1, 2]: 100%
- pest or weed control at 10 µg/mL (carmine spider mite; 10 mg/L, contrastive test, read-out: Insecticidal activity against carmine spider mite (% )): 73%
- pest or weed control at 100 µg/mL (carmine spider mite; [3]): 100%
- pest or weed control at 600 µg/mL (carmine spider mite; [3]): 100%
- pest or weed control at 6.25 µg/mL (corn rust; read-out: control effect against corn rust (%), 6.25 mg/L, protectant activity): 0%
- pest or weed control at 25 µg/mL (corn rust; protectant activity): 10%
- pest or weed control at 100 µg/mL (corn rust; protectant activity): 80%
- pest or weed control at 400 µg/mL (corn rust; protectant activity): 100%
- pest or weed control at 6.25 µg/mL (wheat powdery mildew): 90%
- pest or weed control at 25 µg/mL (wheat powdery mildew): 95%
- pest or weed control at 100 µg/mL (wheat powdery mildew): 95%
- pest or weed control at 400 µg/mL (wheat powdery mildew): 100%
- pest or weed control at 6.25 µg/mL (cucumber downy mildew; protectant activity): 0%
- pest or weed control at 12.5 µg/mL (cucumber downy mildew; protectant activity): 15%
- pest or weed control at 25 µg/mL (cucumber downy mildew; protectant activity): 70%
- pest or weed control at 50 µg/mL (cucumber downy mildew; protectant activity): 100%
- pest or weed control at 100 µg/mL (cucumber downy mildew; protectant activity): 100%
- pest or weed control at 400 µg/mL (cucumber downy mildew; protectant activity): 100%

Reference: patent US9770026B2, “Substituted pyrimidine compound and uses thereof” (Shenyang Sinochem Agrochemicals R&D Co., Ltd., priority 2012, dated 2017)
